In patent US8394852B2, “Inotilone derivatives as coherent biological response modifier (cBMR)” (Sami Labs Ltd, priority 2009, dated 2013):

Key:
[1] = system: iNOS (inducible nitric oxide synthase); experiment: LPS-induced iNOS protein expression by Western blotting in RAW 264.7 cells; type: cell-based, murine; settings: E coli LPS 100 ng/mL, co-treatment
Protocol: (§1) RAW 264.7 cells, derived from murine macrophage (American Type Culture Collection, MD, USA) were cultured in DMEM supplemented with 10% endotoxin-free, heat-inactivated fetal calf serum, 100 units/mL penicillin and 100 mcg/mL streptomycin, the culture media was changed to serum-free DMEM without phenol red on reaching cell density 2-3×10^6 cells/mL, and the cells activated by incubation in medium containing E coli LPS (100 ng/mL). Test compounds dissolved in dimethylsulfoxide were added together with the LPS. Cells treated with 0.05% DMSO acted as vehicle control.
(§2) The effects of test compounds on LPS-induced iNOS (inducible nitric oxide synthase) and COX-2 protein expressions were studied by Western blotting.

[2] = system: COX-2; experiment: LPS-induced COX-2 protein expression by Western blotting in RAW 264.7 cells; type: cell-based, murine; settings: E coli LPS 100 ng/mL, co-treatment
Protocol: as §1, §2

[3] = system: iNOS; settings: cited from earlier work
[4] = system: COX-2; settings: through decreasing the enzyme activity of COX-2; cited from earlier work
[5] = system: nuclear factor-kappaB (NFkappaB); settings: cited from earlier work
[6] = system: PI3K/Akt and extracellular signal-regulated kinase 1/2 and p38 mitogen-activated protein kinase; settings: cited from earlier work

| SMILES | effect on LPS-induced iNOS protein expression [1] | effect on LPS-induced COX-2 protein expression [2] | protein and mRNA expression of iNOS [3] | prostaglandin E(2) production [4] | LPS-induced nuclear translocation of NFkappaB subunit and NFkappaB-dependent transcriptional activity [5] | LPS-induced activation of PI3K/Akt, ERK 1/2 and p38 MAPK [6] |
| --- | --- | --- | --- | --- | --- | --- |
| CC1=CC(=O)/C(=C/c2ccc(O)c(O)c2)O1 [4a, Inotilone] | suppressed the induction of iNOS | but not of COX-2 | blocked protein and mRNA expression of iNOS | inhibited prostaglandin E(2) production | reduction of LPS-induced nuclear translocation of NFkappaB subunit and the NFkappaB-dependent transcriptional activity | inhibited LPS-induced activation of PI3K/Akt and extracellular signal-regulated kinase 1/2 and p38 mitogen-activated protein kinase |
| COc1cc(/C=C2\OC(C)=CC2=O)ccc1O [4b, 2-(4-Hydroxy-3-methoxy-benzylidene)-5-methyl-furan-3-one] | no effect on LPS induced iNOS protein expression | slightly stimulated LPS-induced COX-2 expression |  |  |  |  |
